23 molecules from patent US20110319392A1, “Thiazole Sulfonamide And Oxazole Sulfonamide Kinase Inhibitors” (priority 2009, published 2011) can be followed below.

Bounds are passed on as bounds.

For one assay, the target named is T1, ErbB2 (Homo sapiens, UniProt P04626).
T1 construct: made in house; host or cells: baculovirus expression system
Kind of assay: ErbB-2 substrate phosphorylation assay (HTRF). Type of assay: biochemical. The essentials:
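Baculovirus-expressed EGFR (0.8 nM) or ErbB2 (10 nM) in enzyme mix, preincubated 1 h at 20 °C with compound (0.00027–47.6 μM final), then 90 min at 20 °C with substrate mix of 20 μM ATP, 0.8 uM biotinylated Peptide C, MnCl2, MOPS pH 7.5. Phosphotyrosine by HTRF; pIC50 reported.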
A general note: TR-FRET usually uses a lanthanide donor and a delayed reading to cut background.

The next assay addresses B-Raf (Homo sapiens, UniProt P15056). Kind of assay: B-Raf Accelerated MEK ATPase assay (BRAMA), Method A or B. The format is biochemical. The essentials: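 Activated Raf plus non-phosphorylated MEK drives MEK-mediated ATP hydrolysis; ADP formation coupled via pyruvate kinase/lactate dehydrogenase to NADH oxidation. Method A read kinetically; Method B used 150 nM final MEK and a single end-point read.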

Setting [1] is: Method B: final MEK 150 nM, single end point read.

Broadly, the IC50 is the concentration that gives 50% inhibition. Lower therefore signals greater potency in that assay.

B-Raf, sequence (P15056 whole entry): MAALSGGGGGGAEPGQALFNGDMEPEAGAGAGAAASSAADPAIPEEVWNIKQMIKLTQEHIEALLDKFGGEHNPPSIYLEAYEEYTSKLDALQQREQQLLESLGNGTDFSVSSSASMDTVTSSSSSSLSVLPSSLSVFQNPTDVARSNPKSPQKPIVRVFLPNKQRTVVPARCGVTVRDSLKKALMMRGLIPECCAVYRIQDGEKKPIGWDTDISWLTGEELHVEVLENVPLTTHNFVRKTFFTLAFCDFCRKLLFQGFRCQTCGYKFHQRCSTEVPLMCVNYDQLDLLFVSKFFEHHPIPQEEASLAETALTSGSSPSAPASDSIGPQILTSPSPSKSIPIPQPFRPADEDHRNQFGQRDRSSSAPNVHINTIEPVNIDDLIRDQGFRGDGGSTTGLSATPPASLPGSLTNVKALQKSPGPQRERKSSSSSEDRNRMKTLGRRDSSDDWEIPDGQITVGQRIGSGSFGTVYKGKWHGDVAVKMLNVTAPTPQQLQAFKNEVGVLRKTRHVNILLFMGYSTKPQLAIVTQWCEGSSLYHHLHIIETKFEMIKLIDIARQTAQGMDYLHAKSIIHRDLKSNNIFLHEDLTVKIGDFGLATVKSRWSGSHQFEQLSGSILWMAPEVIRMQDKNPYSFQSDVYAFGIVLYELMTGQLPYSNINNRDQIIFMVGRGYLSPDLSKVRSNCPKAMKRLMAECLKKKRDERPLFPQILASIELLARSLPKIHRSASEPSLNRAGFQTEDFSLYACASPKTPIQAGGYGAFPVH
T1 sequence (P04626 23-1255): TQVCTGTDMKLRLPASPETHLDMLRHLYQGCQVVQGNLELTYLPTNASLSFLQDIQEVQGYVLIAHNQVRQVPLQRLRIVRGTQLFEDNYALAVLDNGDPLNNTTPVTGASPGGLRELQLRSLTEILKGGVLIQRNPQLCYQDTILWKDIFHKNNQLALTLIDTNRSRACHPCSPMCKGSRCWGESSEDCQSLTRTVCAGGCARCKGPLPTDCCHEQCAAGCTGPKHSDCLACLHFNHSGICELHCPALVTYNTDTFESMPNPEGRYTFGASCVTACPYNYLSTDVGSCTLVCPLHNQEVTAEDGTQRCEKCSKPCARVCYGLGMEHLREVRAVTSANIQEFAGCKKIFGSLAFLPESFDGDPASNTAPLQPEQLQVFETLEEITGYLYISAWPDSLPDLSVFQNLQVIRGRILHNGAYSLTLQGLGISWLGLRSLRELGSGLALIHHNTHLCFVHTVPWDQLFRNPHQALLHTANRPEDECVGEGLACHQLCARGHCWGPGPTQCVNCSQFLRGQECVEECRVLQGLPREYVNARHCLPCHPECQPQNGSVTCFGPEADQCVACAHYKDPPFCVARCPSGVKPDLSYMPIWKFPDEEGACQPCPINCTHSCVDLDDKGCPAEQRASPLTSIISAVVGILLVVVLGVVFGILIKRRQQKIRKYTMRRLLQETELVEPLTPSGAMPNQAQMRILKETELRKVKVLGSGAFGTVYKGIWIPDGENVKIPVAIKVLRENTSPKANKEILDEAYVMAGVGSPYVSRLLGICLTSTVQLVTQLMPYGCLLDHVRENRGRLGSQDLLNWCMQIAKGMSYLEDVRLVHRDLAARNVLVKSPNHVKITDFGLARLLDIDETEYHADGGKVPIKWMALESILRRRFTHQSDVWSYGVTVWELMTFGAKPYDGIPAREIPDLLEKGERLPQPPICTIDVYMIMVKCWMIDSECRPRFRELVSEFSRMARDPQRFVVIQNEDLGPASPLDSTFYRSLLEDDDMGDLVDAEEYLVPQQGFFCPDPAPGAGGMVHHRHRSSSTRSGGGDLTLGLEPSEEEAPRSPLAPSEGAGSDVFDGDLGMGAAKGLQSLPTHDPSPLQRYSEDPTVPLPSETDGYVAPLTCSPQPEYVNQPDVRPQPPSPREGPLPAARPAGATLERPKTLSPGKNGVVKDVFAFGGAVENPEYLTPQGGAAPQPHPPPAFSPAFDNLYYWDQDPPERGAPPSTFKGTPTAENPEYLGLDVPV

With `CCc1nc(-c2cccc(NS(=O)(=O)c3ccccc3)c2)c(-c2ccnc(Nc3ccc(N4CCN(C(C)=O)CC4)nc3)n2)s1` [Example 3, N-{3-[5-(2-{[6-(4-Acetyl-1-piperazinyl)-3-pyridinyl]amino}-4-pyrimidinyl)-2-ethyl-1,3-thiazol-4-yl]phenyl}benzenesulfonamide], the half-maximal inhibitory concentration (IC50) is > 1000 nM against ErbB2 and < 100 nM against B-Raf (setting [1]).
`CCc1nc(-c2cccc(NS(=O)(=O)c3ccccc3)c2)c(-c2ccnc(Nc3ccc(N4CCOCC4)c(F)c3)n2)s1` [Example 4]: the IC50 at ErbB2 is > 1000 nM; against B-Raf (Method A), 100 to 1000 nM.
The matching figures for `CCc1nc(-c2cccc(NS(=O)(=O)c3ccccc3)c2)c(-c2ccnc(Nc3ccc(OC)c(N4CCN(CCS(C)(=O)=O)CC4)c3)n2)s1` [Example 5, N-[3-(2-Ethyl-5-{2-[(4-(methyloxy)-3-{4-[2-(methylsulfonyl)ethyl]-1-piperazinyl}phenyl)amino]-4-pyrimidinyl}-1,3-thiazol-4-yl)phenyl]benzenesulfonamide]: 100 to 1000 nM and < 100 nM.
For the molecule `CC(=O)N1CCc2cc(Nc3nccc(-c4sc(C(C)C)nc4-c4cccc(NS(=O)(=O)c5ccccc5)c4)n3)ccc21` [Example 71], the IC50 against ErbB2 and against B-Raf (setting [1]) was < 100 nM throughout.
As to `CC(C)c1nc(-c2cccc(NS(=O)(=O)c3ccccc3)c2)c(-c2ccnc(Nc3ccc(CC4CCN(CCS(C)(=O)=O)CC4)c(F)c3)n2)s1` [Example 72], the IC50 was > 1000 nM on ErbB2 and < 100 nM at B-Raf (setting [1]).
The matching figures for `CC(C)c1nc(-c2cccc(NS(=O)(=O)c3ccccc3)c2)c(-c2ccnc(Nc3ccc(F)c(N4CCN(CCS(C)(=O)=O)CC4)c3)n2)s1` [Example 73]: 100 to 1000 nM and < 100 nM.
For `CC(C)c1nc(-c2cccc(NS(=O)(=O)c3ccccc3)c2)c(-c2ccnc(Nc3ccc(N4CCN(CCS(C)(=O)=O)CC4)c(F)c3F)n2)s1` [Example 74], in that order: > 1000 nM and < 100 nM.
The matching figures for `CC(C)c1nc(-c2cccc(NS(=O)(=O)c3c(F)cccc3F)c2)c(-c2ccnc(Nc3ccc(N4CCN(C(C)C)CC4)cc3O)n2)s1` [Example 78]: 100 to 1000 nM and < 100 nM.
Regarding `COc1cc(N2CCN(CCF)CC2)ccc1Nc1nccc(-c2sc(C(C)C)nc2-c2cccc(NS(=O)(=O)c3c(F)cccc3F)c2)n1` [Example 79], the concentration for half-maximal inhibition (IC50) against ErbB2 was 100 to 1000 nM; on B-Raf (setting [1]) it was < 100 nM.
`CC(C)c1nc(-c2cccc(NS(=O)(=O)c3c(F)cccc3F)c2)c(-c2ccnc(Nc3ccc(N4CCN(CCO)CC4)nc3)n2)s1` [Example 80]: the IC50 is > 1000 nM at ErbB2 and < 100 nM against B-Raf (setting [1]).
For `CC(C)c1nc(-c2cccc(NS(=O)(=O)c3c(F)cccc3F)c2)c(-c2ccnc(Nc3cccc(N4CCN(C)CC4)c3)n2)s1` [Example 81], in that order: 100 to 1000 nM and < 100 nM.
Regarding `CC(C)c1nc(-c2cccc(NS(=O)(=O)c3c(F)cccc3F)c2)c(-c2ccnc(Nc3ccc(N4CCCNCC4)nc3)n2)s1` [Example 82], the half-inhibitory concentration (IC50) is 100 to 1000 nM against ErbB2 and < 100 nM at B-Raf (setting [1]).
`CC(C)c1nc(-c2cc(F)cc(NS(=O)(=O)c3ccc(F)cc3)c2)c(-c2ccnc(Nc3ccc(N4CCOCC4)c(F)c3)n2)s1` [Example 83]: the IC50 against ErbB2 was > 1000 nM; at B-Raf (setting [1]), < 100 nM.
For `CC(C)c1nc(-c2cc(F)cc(NS(=O)(=O)c3c(F)cccc3F)c2)c(-c2ccnc(Nc3ccc(N4CCOCC4)nc3)n2)s1` [Example 84], in that order: > 1000 nM and < 100 nM.
For `CC(C)c1nc(-c2cc(F)cc(NS(=O)(=O)c3c(F)cccc3F)c2)c(-c2ccnc(Nc3ccc(N4CCOCC4)c(F)c3)n2)s1` [Example 85], in that order: 100 to 1000 nM and < 100 nM.
On to `CC(C)c1nc(-c2cccc(NS(=O)(=O)c3c(F)cccc3F)c2)c(-c2ccnc(Nc3cc(F)c(N4CCN(CCS(C)(=O)=O)CC4)cc3F)n2)s1` [Example 87], for which the IC50 at ErbB2 is 100 to 1000 nM; against B-Raf (setting [1]) it was < 100 nM.
Turning to `CC(C)c1nc(-c2cccc(NS(=O)(=O)c3c(F)cccc3F)c2)c(-c2ccnc(Nc3ccc(N4CCCN(CCS(C)(=O)=O)CC4)nc3)n2)s1` [Example 88], the figures for the IC50 against ErbB2 and at B-Raf (setting [1]) were 100 to 1000 nM and < 100 nM, respectively.
For `CC(C)c1nc(-c2cccc(NS(=O)(=O)c3c(F)cccc3F)c2)c(-c2ccnc(Nc3ccc(N4CC[C@@H](O)C4)nc3)n2)s1` [Example 89], in that order: 100 to 1000 nM and < 100 nM.
For `Cc1cc(N2CCC(N3CCCCC3)CC2)ccc1Nc1nccc(-c2sc(C(C)C)nc2-c2cccc(NS(=O)(=O)c3c(F)cccc3F)c2)n1` [Example 91], in that order: < 100 nM and < 100 nM.
Turning to `CC(C)c1nc(-c2cccc(NS(=O)(=O)c3ccccc3)c2)c(-c2ccnc(Nc3ccc(N4CCOCC4)cn3)n2)s1` [Example 92], the IC50 against ErbB2 was > 1000 nM; on B-Raf (setting [1]) it was < 100 nM.
For `C=C(C)c1nc(-c2cccc(NS(=O)(=O)c3c(F)cccc3F)c2)c(-c2ccnc(Nc3ccc(N4CCN(CCF)CC4)c(F)c3)n2)s1` [Example 93], in that order: 100 to 1000 nM and < 100 nM.
The matching figures for `CC(C)c1nc(-c2ccc(F)c(NS(=O)(=O)c3c(F)cccc3F)c2)c(-c2ccnc(Nc3ccc(N4CCN(CCS(C)(=O)=O)CC4)c(F)c3)n2)s1` [Example 95]: 100 to 1000 nM and < 100 nM.
`CC(=O)N1CCN(c2ccc(Nc3nccc(-c4sc(C(C)C)nc4-c4cccc(NS(=O)(=O)c5cc(F)ccc5F)c4)n3)cn2)CC1` [Example 96]: the IC50 against ErbB2 was > 1000 nM; against B-Raf (setting [1]), < 100 nM.
